{
  "source": "patent US20210161837A1",
  "about": "“METHODS FOR TREATING CANCER WITH RORGAMMA INHIBITORS” (The Regents of the University of California, priority 2016, published 2021)",
  "key": {"RORγ": {"target": "T1, RORγ (Homo sapiens, UniProt P51449)", "T1 construct": "reporter gene assay in 293T cells with Gal4-RORγ LBD expression vectors; expressed in transfected cells; host or cells: 293T cells", "T1 sequence (P51449 269-508 limits assumed)": "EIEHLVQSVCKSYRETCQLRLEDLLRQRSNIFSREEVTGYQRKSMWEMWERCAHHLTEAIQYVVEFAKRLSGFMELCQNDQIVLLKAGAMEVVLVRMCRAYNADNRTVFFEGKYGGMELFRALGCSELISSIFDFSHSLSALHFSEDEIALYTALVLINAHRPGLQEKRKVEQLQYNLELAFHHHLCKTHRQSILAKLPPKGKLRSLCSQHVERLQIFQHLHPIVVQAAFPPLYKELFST", "assay": "RORγ transcriptional activity, reporter gene assay in 293T cells with Gal4-RORγ LBD expression vectors", "assay_type": "cell-based", "details": "read-out: EC50, inhibition of RORγ constitutive activity", "protocol": "The 2-([1,1′-biphenyl]-4-yl)-1,1,1,3,3,3-hexafluoropropan-2-ol group of SR2211 was kept, while the amide group of the GSK agonist was chosen as linker. FIG. 2B illustrates RORγ transcriptional activity measured by reporter gene assay in 293T cells with Gal4-RORγ LBD expression vectors. EC50 values are reported as means±s.d. for ≥8 separate titrations from 10 μM. In vitro binding to the ligand binding domain (LBD) was measured by AlphaScreen and by thermal shift assay (TSA).\nFor example, the phenyl group in the middle likely forms a π-π interaction with the side chain of Phe378 of the LBD, while the amide group can form a direct hydrogen bond with Phe377. The nitro group and hydroxyl group at the two ends may form hydrogen bonds with Glu379 and His479, respectively."}, "[1]": {"system": "gastric cancer KATO III cells", "assay": "Cell viability (Cell-Titer GLO), 4 days, gastric cancer cells", "assay_type": "cell-based, human", "protocol": "Experiments were independently performed three times.\n(§1) For cell viability, cells were seeded in 96-well plates at 1500-2500 cells per well (optimum density for growth, depending on the specific cell line) in a total volume of 100 μl media. Serially diluted compounds in 100 μl of media were added to the cells 12 hours later. After 4 days of incubation, Cell-Titer GLO reagents (Promega) were added and luminescence was measured on GLOMAX microplate luminometer (Promega), according to the manufacturer's instructions. All experimental points were set up as sextuplicate as biological replication and the entire experiments were repeated three times. The data are presented as percentage of viable cells with vehicle treated cells set as 100."}, "HCC1954": {"system": "HCC1954", "assay": "Cell viability (CellTiter-GLO), 4 days, HER2-positive cells", "assay_type": "cell-based", "details": "Homo sapiens, 96 h; HER2-positive HCC1954, 4 days", "protocol": "as §1, with “100. The estimated in vitro IC50 values were calculated using GraphPad Prism 6 software.” for “100.”"}, "MDA-MB468 cells": {"system": "MDA-MB468 cells", "assay": "Cell viability (CellTiter-GLO), 4 days, TNBC cells", "assay_type": "cell-based, human", "protocol": "The “No.” label for each compound corresponds to the “Structure No.” in Table 2 (e.g., “No. 36”=“Structure No. 36” in Table 2). The cell viability curves were measured by CellTiter-GLO.\nas §1, with “growth)” for “growth, depending on the specific cell line)”, “100. The estimated in vitro IC50 values were calculated using GraphPad Prism 6 software.” for “100.”"}, "LNCaP cells": {"system": "LNCaP cells", "assay": "Cell viability (CellTiter-GLO), 4 days", "assay_type": "cell-based", "details": "Homo sapiens, read-out: inhibitory potency (growth inhibition)", "protocol": "(§2) (a&b) C4-2B and 22Rv1 cell proliferation after the RORγ antagonist treatment. Cells were seeded in 6-well plates and counted after cells were treated with indicated concentrations of RORγ antagonists for 0, 2, 4 and 6 days by Coulter counter. […] (e) representative images of TUNEL positive cells treated with vehicle or the antagonist (5 μM) in 22Rv1 cells are shown. […] Three days later, cells were harvested for immunoblotting with indicated antibodies.\n(§3) LNCaP, C4-2B, 22Rv, PC-3, and PC346C prostate cancer cells were cultured in RPMI1640, VCaP, HEK293T and human fibroblast IMR90 cells were in DMEM, LAPC-4 was in Iscove's MEM (all from Corning), and RWPE-1 and PZ-HPV-7 were in Keratinocyte Serum Free Medium (K-SFM) (Invitrogen) with the supplements. All the culture media except for RWPE-1 and PZ-HPV-7 were supplemented with 10% FBS (Hyclone) except indicated otherwise. […]\nFor cell viability, cells were seeded in 96-well plates at 1500-2500 cells per well (optimum density for growth, depending on the specific cell line) in a total volume of 100 μl media. […] After 4 days of incubation, Cell-Titer GLO reagents (Promega) were added and luminescence was measured on GLOMAX microplate luminometer (Promega), according to the manufacturer's instructions. […] The estimated in vitro IC50 values were calculated using GraphPad Prism 6 software."}, "[2]": {"system": "SUM159 orthotopic xenograft tumors", "assay": "TNBC SUM159 orthotopic xenograft tumor growth in SCID mice", "assay_type": "in vivo, mouse", "details": "5 mg/kg, i.p., 5 times per week, 45 days", "protocol": "Orthotopic xenograft tumor models and chemical compound treatments: Four-week-old female SCID C.B17 mice (for TNBC SUM159 cell lines) were purchased from Harlan Inc. For establishing tumors, 2×10^6 cells were suspended in total of 100 μL PBS/Matrigel (1:1) and implanted orthotopically into the 4th inguinal mammary fat pads at both sides. Animal group size of six or more was estimated to have a high statistical power, based on power calculation (www.biomath.info/pgwer/) and 20 previous studies involving the same xenograft models. When the tumor volume was approximately 50 mm^3, the mice were randomized and then treated intraperitoneally (i.p.) with 100 μl of vehicle or RORγ inhibitors F18/No. 37, 5 mg/kg; GSK805, 5 mg/kg; GNE3500, 5 mg/kg. (in a formulation of 15% Cremophor EL, Calbiochem, 82.5% PBS, and 2.5% DMSO) for five times per week. Tumor growth was monitored by calipers with volume calculated using the equation: π/6 (length×width^2). Mouse body weight during the course of the study was also monitored. At the end of the studies, mice were killed and tumors were dissected and weighed."}, "CRPC cells": {"system": "CRPC cells", "assay": "Growth inhibition of CRPC cells compared with enzalutamide", "assay_type": "cell-based, human", "protocol": "Data shown are mean percentage of apoptotic cells±s.d. […] Data shown are mean±s.d. Significance was calculated using Student's t-test. *p<0.05, **p<0.01.\nas §2\nas §3, with “otherwise. For experiments, C4-2B cells were cultured in RPMI supplemented with 9% cds-FBS plus 1% regular FBS (to mimic the CRPC condition) unless indicated otherwise and 22Rv1 cells were cultured in RPMI supplemented with 10% cds-FBS. Cells were grown at 37° C. in 5% CO2 incubators. LNCaP, VCaP, 22Rv1, PC-3, 293T, IMR90, PZ-HPV-7 and RWPE-1 were from ATCC.” for “otherwise.”"}},
  "data": [
    {"compound": "O=C(Cc1ccccc1[N+](=O)[O-])Nc1ccc(-c2ccc(C(O)(C(F)(F)F)C(F)(F)F)cc2F)cc1", "note": "[XY018, N-(2′-fluoro-4′-(1,1,1,3,3,3-hexafluoro-2-hydroxypropan-2-yl)-[1,1′-biphenyl]-4-yl)-2-(2-nitrophenyl)acetamide]", "values": [
      {"measurement": "EC50", "setting": "RORγ", "result": 0.19, "unit": "µM"},
      {"measurement": "inhibition of growth and survival", "setting": "[1]", "result": "strongly inhibited the growth and survival"},
      {"measurement": "IC50", "setting": "HCC1954", "result": 1.47, "unit": "µM"},
      {"measurement": "inhibition of growth and survival", "setting": "MDA-MB468 cells", "result": "strongly inhibited the growth and survival"},
      {"measurement": "IC50", "setting": "LNCaP cells", "result": 2.1, "unit": "µM"},
      {"measurement": "orthotopic tumor growth inhibition", "setting": "[2]", "result": "effectively inhibited the orthotopic TNBC tumor growth"},
      {"measurement": "growth inhibition, potency relative to enzalutamide", "setting": "CRPC cells", "result": "strong growth inhibition with much higher potencies than that of enzalutamide"}
    ]}
  ]
}
